Results as given in ChEMBL document CHEMBL1201862, “PubChem BioAssay data set” (2004).
The source made the active and inactive calls.

How the values were obtained:
[1] = biological target: Scavenger receptor class B member 1 (Mus musculus, UniProt Q61009); assay: inhibitors of SR-BI mediated HDL lipid uptake, dose response, ldlA[mSR-BI] cells, fluorescence, cherry pick (AID 493194); format: functional, cell-based;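 note: cellular uptake of fluorescent DiI-labeled HDL measured as cell fluorescence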
[2] = biological target: T1, Tyrosine-protein phosphatase non-receptor type 7 (Homo sapiens, UniProt P35236); format: functional
T1 sequence (P35236 whole entry): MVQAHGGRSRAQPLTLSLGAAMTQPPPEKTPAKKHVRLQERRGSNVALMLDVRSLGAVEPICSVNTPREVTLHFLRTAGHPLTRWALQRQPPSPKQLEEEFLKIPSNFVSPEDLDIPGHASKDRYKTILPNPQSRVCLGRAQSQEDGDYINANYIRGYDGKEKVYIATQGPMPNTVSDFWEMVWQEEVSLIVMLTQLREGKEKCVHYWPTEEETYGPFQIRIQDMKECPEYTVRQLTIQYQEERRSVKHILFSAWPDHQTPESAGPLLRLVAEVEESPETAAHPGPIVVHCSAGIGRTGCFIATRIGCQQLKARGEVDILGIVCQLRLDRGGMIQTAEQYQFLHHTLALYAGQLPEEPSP

[3] = biological target: Glyceraldehyde-3-phosphate dehydrogenase (Homo sapiens, UniProt P04406)
[4] = biological target: T2, Dual specificity protein phosphatase 6 (Rattus norvegicus, UniProt Q64346)
T2 sequence (Q64346 whole entry): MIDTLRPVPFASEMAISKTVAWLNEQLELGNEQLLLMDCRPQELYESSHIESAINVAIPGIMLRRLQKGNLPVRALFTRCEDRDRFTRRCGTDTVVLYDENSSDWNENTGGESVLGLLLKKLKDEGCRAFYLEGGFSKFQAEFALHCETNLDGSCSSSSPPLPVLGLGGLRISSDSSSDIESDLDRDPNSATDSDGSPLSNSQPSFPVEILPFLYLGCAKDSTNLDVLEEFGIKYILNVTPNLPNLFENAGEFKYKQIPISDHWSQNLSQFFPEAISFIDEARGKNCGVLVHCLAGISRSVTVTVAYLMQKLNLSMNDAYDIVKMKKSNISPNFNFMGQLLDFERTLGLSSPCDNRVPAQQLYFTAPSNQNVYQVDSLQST

[5] = biological target: T2, Dual specificity protein phosphatase 6; format: functional
[6] = biological target: T3, Cytochrome P450 2D6 (Homo sapiens, UniProt P10635); assay: qHTS Assay for Inhibitors and Substrates of Cytochrome P450 2D6. [Related pubchem assays: 410 ]; format: ADME; conditions: read-out: Potency
[7] = biological target: Cytochrome P450 2C9 (Homo sapiens, UniProt P11712); conditions: Potency
[8] = biological target: T4, Leucine aminopeptidase (Plasmodium falciparum 3D7, UniProt Q8IL11); assay: P. falciparum M17LAP inhibitors, primary screen, biochemical, fluorogenic H-Leu-NHMec substrate, 1536-well (AID 1619); format: functional
T4 sequence (Q8IL11 whole entry): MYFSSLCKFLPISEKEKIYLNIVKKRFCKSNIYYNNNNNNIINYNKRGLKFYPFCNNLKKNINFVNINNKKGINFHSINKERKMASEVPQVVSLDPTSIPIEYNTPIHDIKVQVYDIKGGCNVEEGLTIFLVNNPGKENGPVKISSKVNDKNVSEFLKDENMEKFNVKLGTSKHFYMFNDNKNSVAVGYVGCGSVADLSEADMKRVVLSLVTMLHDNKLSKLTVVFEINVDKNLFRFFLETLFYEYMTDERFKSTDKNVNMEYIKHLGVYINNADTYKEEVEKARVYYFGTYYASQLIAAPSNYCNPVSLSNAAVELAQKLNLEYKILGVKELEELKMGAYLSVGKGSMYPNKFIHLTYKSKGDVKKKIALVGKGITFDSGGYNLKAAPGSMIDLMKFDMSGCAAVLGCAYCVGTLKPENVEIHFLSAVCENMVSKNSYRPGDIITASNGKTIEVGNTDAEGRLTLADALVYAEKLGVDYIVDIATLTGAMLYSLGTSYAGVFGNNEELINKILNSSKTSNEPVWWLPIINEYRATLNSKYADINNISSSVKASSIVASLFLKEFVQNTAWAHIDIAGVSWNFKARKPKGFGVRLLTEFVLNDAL

[9] = test system: Streptococcus sp. 'group A'; assay: growth inhibition of control SK(-) GAS strain, dose response, counter-screen for streptokinase expression inhibitor project, luminescence, kanamycin, BacTiterGlo, confirmation (AID 1900); format: functional, organism-based
[10] = test system: Streptococcus; assay: Luminescence Microorganism-Based Dose Response Follow up to Identify Compounds Cytotoxic to Streptococcus. [Related pubchem assays: 1677 (Project Summary), 1915, 1914, 1902 (Retest at Dose), 1900 (Counter Screen), 1662 (Primary HTS)]; format: functional, organism-based
[11] = biological target: T5, Streptokinase A (Streptococcus pyogenes serotype M1, UniProt P10520); assay: S. pyogenes streptokinase expression inhibitors, potency, dose response, plasminogen activation absorbance, OD405 (AID 1914); format: functional, Streptococcus pyogenes M1 GAS;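 note: secreted streptokinase activity via plasminogen activation per viability signal from cell pellet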
T5 sequence (P10520 whole entry): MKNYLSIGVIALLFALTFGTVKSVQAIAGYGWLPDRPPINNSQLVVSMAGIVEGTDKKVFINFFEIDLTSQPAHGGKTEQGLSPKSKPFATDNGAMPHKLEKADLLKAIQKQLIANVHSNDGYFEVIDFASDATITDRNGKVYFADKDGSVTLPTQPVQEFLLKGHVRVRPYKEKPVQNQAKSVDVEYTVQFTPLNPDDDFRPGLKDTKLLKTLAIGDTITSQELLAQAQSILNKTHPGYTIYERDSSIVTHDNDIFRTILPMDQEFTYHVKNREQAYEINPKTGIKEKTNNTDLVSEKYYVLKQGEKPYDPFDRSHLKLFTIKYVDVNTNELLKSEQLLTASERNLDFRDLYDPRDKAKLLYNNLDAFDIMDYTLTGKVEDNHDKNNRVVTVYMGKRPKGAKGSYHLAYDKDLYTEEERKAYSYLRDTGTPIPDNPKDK

[12] = test system: Streptococcus; assay: Group A Streptococcus viability loss, dose response, counter-screen for streptokinase expression inhibitor project, luminescence, BacTiterGlo (AID 1915); format: functional, organism-based;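 note: potency for reduction of bacterial viability or growth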
[13] = biological target: T6, Neuropeptides B/W receptor type 1 (Homo sapiens, UniProt P48145); assay: Fluorescence-based dose response cell-based high throughput screening assay to identify antagonists of the G-protein coupled receptor 7 (GPR7). [Related pubchem assays: 1952 (Screening assay (GPR7 antagonists).), 1880 (Summary AID.)]; format: functional
T6 sequence (P48145 whole entry): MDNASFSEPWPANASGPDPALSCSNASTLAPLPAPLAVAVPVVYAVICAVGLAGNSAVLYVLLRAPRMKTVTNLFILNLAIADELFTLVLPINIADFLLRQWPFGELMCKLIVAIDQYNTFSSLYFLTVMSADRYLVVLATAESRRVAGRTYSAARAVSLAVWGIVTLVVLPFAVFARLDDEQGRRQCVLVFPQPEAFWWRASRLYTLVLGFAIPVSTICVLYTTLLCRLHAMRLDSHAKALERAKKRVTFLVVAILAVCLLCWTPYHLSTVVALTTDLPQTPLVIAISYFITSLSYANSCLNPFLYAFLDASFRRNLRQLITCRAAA

[14] = biological target: Melanin-concentrating hormone receptor 1 (Homo sapiens, UniProt Q99705); assay: Fluorescence-based counterscreen for antagonists of the G-protein coupled receptor 7 (GPR7): cell-based high throughput dose response assay to identify antagonists of the melanin-concentrating hormone receptor 1 (MCHR1).; format: functional
[15] = biological target: Tumor necrosis factor (Homo sapiens, UniProt P01375); assay: TNFa-triggered NF-kB activation inhibitors, SAR follow-up, cell-based, revised (AID 2337); format: functional
[16] = biological target: T7, Nucleotide-binding oligomerization domain-containing protein 1 (Homo sapiens, UniProt Q9Y239); assay: NOD1 signaling inhibitors, SAR follow-up, revised (AID 2333); format: functional
T7 sequence (Q9Y239 whole entry): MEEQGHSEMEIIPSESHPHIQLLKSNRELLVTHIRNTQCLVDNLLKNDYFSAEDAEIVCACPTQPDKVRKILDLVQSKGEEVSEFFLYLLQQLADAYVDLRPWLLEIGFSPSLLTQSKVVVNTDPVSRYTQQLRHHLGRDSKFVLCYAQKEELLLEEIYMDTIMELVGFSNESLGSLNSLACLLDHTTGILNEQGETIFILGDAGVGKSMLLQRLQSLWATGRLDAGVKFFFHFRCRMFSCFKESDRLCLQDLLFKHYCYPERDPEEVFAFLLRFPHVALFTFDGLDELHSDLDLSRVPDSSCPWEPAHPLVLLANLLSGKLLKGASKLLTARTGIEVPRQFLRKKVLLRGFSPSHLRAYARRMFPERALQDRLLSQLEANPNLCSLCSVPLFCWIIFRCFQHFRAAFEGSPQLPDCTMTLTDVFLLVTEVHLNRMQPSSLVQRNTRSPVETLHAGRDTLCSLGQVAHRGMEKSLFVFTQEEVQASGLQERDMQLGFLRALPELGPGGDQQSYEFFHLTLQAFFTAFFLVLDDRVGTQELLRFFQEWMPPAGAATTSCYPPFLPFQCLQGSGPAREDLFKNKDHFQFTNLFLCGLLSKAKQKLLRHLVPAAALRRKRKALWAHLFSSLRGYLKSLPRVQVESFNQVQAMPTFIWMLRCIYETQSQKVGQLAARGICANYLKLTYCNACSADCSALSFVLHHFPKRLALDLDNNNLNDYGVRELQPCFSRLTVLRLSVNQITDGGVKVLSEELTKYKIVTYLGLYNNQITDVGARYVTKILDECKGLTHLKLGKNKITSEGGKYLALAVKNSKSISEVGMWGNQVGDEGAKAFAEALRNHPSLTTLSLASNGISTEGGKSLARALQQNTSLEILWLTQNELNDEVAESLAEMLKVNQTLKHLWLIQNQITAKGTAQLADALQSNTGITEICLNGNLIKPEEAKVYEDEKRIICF

[17] = biological target: Nucleotide-binding oligomerization domain-containing protein 2 (Homo sapiens, UniProt Q9HC29); assay: PubChem AID 2334; format: functional
[18] = test system: HEK293; assay: cells; conditions: Homo sapiens;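 note: cells exposed to compound for 14 hours overnight before viability readout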
[19] = biological target: Genome polyprotein (dengue virus type 2, UniProt P29990); assay: Dengue-2 NS5 methyltransferase inhibitors, primary screen, biochemical, confirmation dose response (AID 588689); format: functional
[20] = biological target: T3, Cytochrome P450 2D6

Sequence of Glyceraldehyde-3-phosphate dehydrogenase (P04406 whole entry): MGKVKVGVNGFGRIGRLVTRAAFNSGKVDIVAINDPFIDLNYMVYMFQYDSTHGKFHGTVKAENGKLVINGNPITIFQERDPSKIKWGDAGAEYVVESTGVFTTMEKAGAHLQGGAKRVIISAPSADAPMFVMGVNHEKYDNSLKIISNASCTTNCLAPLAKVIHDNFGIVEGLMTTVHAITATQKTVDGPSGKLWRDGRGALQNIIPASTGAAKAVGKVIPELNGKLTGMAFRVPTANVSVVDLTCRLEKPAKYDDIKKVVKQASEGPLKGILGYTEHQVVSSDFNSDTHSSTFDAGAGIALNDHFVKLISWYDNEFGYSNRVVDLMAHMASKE
Sequence of Cytochrome P450 2C9 (P11712 whole entry): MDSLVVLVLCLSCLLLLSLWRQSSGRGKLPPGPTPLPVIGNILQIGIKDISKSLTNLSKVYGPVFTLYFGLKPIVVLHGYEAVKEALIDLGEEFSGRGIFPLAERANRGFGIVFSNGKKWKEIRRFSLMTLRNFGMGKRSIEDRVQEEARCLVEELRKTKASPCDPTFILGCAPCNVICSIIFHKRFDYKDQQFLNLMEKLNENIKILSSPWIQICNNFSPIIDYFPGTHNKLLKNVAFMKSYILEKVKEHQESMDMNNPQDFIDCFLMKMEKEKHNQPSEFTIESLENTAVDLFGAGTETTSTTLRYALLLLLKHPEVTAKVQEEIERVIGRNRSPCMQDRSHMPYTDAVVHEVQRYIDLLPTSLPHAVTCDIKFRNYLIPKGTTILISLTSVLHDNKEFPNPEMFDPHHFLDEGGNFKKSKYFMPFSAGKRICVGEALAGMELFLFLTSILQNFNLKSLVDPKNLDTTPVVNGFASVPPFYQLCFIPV
Sequence of Tumor necrosis factor (P01375 whole entry, the tested form may be a part): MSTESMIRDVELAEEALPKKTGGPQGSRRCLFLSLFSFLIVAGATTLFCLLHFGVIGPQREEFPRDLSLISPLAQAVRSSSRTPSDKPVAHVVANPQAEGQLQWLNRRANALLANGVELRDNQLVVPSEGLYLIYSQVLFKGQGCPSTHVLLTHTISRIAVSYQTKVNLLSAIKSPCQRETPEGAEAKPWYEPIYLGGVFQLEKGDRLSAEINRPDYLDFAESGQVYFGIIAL
Sequence of Melanin-concentrating hormone receptor 1 (Q99705 whole entry): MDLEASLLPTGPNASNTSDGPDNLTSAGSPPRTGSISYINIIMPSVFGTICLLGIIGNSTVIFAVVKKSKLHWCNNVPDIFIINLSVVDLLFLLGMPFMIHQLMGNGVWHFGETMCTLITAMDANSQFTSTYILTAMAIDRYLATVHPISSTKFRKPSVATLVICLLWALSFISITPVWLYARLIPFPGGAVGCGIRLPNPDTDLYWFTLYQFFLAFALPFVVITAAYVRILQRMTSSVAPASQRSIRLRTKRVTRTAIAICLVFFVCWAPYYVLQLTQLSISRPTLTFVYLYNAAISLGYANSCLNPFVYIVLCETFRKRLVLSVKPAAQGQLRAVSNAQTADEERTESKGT
Sequence of Scavenger receptor class B member 1 (Q61009 whole entry): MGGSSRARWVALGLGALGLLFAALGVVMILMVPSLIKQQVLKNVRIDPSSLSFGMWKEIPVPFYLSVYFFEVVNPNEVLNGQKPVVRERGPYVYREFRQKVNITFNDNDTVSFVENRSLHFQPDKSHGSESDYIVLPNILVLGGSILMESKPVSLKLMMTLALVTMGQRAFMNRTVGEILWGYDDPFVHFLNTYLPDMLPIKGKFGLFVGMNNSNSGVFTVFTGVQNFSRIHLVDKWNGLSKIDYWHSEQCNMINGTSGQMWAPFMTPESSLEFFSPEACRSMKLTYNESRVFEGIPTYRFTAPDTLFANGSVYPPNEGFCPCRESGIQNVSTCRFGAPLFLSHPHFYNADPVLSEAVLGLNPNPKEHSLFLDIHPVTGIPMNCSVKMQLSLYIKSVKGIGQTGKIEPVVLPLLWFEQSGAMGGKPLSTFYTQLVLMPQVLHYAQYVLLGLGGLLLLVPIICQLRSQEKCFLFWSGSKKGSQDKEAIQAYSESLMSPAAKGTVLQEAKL
Sequence of Nucleotide-binding oligomerization domain-containing protein 2 (Q9HC29 whole entry, the tested form may be a part): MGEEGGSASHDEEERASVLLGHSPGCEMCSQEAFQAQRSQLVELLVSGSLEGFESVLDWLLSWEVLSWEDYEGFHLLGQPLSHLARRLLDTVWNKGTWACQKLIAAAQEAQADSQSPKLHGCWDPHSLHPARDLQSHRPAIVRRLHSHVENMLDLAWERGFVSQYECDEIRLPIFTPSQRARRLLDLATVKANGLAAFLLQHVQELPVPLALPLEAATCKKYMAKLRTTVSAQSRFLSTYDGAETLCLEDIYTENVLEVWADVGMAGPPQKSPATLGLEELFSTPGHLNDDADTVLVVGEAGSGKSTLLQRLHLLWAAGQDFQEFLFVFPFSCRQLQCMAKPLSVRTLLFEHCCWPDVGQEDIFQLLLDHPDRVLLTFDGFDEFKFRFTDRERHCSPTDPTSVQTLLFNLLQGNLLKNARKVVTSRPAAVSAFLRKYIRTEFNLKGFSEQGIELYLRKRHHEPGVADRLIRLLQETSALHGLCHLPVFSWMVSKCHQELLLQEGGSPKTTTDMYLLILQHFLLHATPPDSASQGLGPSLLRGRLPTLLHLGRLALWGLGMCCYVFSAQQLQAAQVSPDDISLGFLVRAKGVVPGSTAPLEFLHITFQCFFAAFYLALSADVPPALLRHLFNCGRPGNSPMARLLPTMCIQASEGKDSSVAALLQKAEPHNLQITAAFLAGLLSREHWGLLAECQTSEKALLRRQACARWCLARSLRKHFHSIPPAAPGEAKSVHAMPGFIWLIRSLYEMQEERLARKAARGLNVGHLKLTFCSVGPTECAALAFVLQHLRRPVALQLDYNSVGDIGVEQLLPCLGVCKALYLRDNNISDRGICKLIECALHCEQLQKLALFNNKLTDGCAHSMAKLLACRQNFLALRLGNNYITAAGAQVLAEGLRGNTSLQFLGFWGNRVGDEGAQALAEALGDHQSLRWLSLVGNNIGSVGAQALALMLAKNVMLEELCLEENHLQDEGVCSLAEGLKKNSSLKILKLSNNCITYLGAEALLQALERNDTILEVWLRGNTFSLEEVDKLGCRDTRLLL
T3 sequence (P10635 whole entry): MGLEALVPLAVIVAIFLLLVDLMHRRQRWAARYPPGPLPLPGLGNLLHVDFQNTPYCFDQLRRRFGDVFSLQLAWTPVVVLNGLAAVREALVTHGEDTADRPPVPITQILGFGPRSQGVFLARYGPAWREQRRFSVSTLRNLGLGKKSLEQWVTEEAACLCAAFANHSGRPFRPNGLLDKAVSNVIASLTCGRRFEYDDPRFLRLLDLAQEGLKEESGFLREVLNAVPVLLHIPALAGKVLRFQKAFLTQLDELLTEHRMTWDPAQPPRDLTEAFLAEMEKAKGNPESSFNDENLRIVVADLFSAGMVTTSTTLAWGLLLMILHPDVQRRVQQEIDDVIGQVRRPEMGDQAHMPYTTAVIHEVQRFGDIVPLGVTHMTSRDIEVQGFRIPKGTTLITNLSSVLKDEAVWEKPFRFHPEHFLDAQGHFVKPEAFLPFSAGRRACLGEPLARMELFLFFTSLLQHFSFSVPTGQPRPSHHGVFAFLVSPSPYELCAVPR
Sequence of Genome polyprotein (P29990 2492-3391 limits assumed): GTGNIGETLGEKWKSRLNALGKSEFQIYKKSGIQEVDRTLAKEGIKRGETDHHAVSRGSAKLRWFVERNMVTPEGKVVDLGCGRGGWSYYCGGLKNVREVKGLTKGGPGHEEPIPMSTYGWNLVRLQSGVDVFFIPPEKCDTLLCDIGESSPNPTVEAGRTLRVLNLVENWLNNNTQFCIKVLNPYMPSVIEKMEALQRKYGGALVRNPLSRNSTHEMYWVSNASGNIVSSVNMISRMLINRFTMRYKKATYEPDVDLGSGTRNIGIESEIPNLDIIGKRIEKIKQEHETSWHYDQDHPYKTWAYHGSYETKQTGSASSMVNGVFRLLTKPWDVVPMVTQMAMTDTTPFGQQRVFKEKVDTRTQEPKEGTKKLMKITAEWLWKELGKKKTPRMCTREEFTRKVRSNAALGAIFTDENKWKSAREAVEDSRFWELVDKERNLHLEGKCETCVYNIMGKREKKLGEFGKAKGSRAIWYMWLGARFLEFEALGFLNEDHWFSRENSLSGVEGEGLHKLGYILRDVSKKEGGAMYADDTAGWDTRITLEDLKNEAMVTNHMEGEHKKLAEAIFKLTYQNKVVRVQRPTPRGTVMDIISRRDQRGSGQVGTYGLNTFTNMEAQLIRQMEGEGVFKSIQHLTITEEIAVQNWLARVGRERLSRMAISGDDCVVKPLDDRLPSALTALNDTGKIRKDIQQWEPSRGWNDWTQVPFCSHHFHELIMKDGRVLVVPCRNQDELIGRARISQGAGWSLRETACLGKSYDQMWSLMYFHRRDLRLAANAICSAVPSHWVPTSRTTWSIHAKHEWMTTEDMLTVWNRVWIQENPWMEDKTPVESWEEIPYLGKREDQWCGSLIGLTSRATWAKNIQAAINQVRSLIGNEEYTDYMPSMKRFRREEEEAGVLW

Compound: CCn1c(COc2c(C)cccc2C)nnc1SCC(=O)N1CCN(c2ccccc2)CC1
- AC50 [1]: 23 µM (active)

Compound: CCCCCCn1c(=O)nc(NCc2ccccc2OC)[nH]c1=O
- IC50 [2]: > 100 µM (not active)
- IC50 [3]: > 100 µM (not active)
- IC50 [4]: > 100 µM (inactive)
- IC50 [5]: > 100 µM (inactive)

Compound: COC(=O)NC(/C(C(=O)OC)=C(\C)NCc1ccccc1)c1ccc(Cl)cc1 (stereo not given)
- AC50 [6]: 5.01 µM (inconclusive)
- AC50 [7]: 6.31 µM (inconclusive)

Compound: Cc1ccc(-c2nn(CCC(=O)O)cc2/C=C\C(=O)c2ccc(Br)cc2)cc1
- IC50 [8]: 34 µM (active)
- EC50 [9]: 4.41 µM (active)
- EC50 [10]: 25.4 µM (active)
- EC50 [11]: 2.33 µM (active)
- EC50 [12]: > 50 µM (not active)

Compound: COc1ccccc1N(C(=O)c1ccco1)C(C(=O)NC1CCCCC1)c1cc(OC)c(OC)c(OC)c1 (stereo not given)
- IC50 [13]: > 43.8 µM (not active)
- IC50 [14]: > 43.8 µM (not active)

Compound: N#C/C(=C(/O)COC(=O)CSc1ccc2ccccc2c1)c1nc2ccccc2[nH]1
- IC50 [15]: > 20 µM (inactive)
- IC50 [16]: > 20 µM (inactive)
- IC50 [17]: > 20 µM (inactive)
- IC50 [18]: > 20 µM (inactive)

Compound: CCOC(=O)C1Nc2c(O)ccc(C)c2C2C=CCC12 (stereo not given)
- IC50 [2]: > 100 µM (not active)
- IC50 [3]: > 100 µM (not active)
- IC50 [4]: > 100 µM (inactive)
- IC50 [5]: > 100 µM (inactive)

Compound: N#Cc1c(-c2ccccc2)nc(SCc2cccc(C(F)(F)F)c2)[nH]c1=O
- EC50 [11]: 6.34 µM (active)
- IC50 [15]: 8.05 µM (active)
- IC50 [16]: 6.48 µM (active)
- IC50 [17]: 7.5 µM (active)
- IC50 [19]: 42.7 µM (active)

Compound: CCOC(=O)OCC1OC(c2ccc(C(C)=O)cc2)C=CC1Oc1ccc(-c2ccccc2)cc1 (stereo not given)
- AC50 [7]: 5.01 µM (inconclusive)

Compound: Cc1cc(-c2csc(N)n2)c(C)n1-c1ccc(Cl)c(Cl)c1
- AC50 [1]: 12.9 µM (active)

Compound: Cc1cc(C)c(NC(=O)c2oc3ccccc3c2COc2ccccc2)c(C)c1
- EC50 [10]: 122 µM (active)
- EC50 [11]: 6.21 µM (active)
- EC50 [12]: > 150 µM (not active)

Compound: Cc1ccc(NCC(=O)N/N=C/c2ccc(OC(=O)c3ccco3)cc2)cc1
- IC50 [13]: > 43.8 µM (not active)
- IC50 [14]: > 43.8 µM (not active)
- AC50 [20]: 15.8 µM (inconclusive)
